Laboratory results published in patent US9242999B2, “Cephem compound having pyridinium group” (priority 2011, dated 2016).
In brackets after ≈: the same amount, converted by molar mass.

Columns and labels:
Assay type in all cases: cell-based
A. baumannii SR27323 = assay: MIC, CLSI broth microdilution, cation-adjusted Mueller Hinton broth with human apo-transferrin (Test Example 1); settings: inoculum 5×10^5 cfu/mL; for MIC: Acinetobacter baumannii, SR27323, Table 2, OXA-23, OXA-58 carbapenemase producing strain, read-out: Minimum Inhibitory Concentration (MIC) A. baumannii SR27323; for Minimum Inhibitory Concentration (MIC) A. baumannii SR27323: Table 2, OXA-23, OXA-58 carbapenemase producing strain
Procedure: (§1) Measurement of Minimum Inhibitory Concentration (MIC: μg/mL) was conducted according to CLSI (Clinical and Laboratory Standards Institute) method, and the amount of bacteria for inoculation was 5×10^5 cfu/mL, and cation-adjusted Mueller Hinton broth containing human apo-transferrin was used as a test medium, and the experiment was conducted using broth microdilution method. The bacteria used are listed below.

E. coli ATCCBAA-199 = assay: as above; settings: inoculum 5×10^5 cfu/mL; for MIC: Escherichia coli, ATCCBAA199, Table 2, SHV-3 ESBL producing strain, read-out: Minimum Inhibitory Concentration (MIC) E. coli ATCC BAA-199
Procedure: as §1

E. coli ATCCBAA-200 [1] = assay: as above; settings: inoculum 5×10^5 cfu/mL; for MIC: Escherichia coli, ATCCBAA200, Table 2, SHV-4 ESBL producing strain, read-out: Minimum Inhibitory Concentration (MIC) E. coli ATCC BAA-200
Procedure: as §1

[2] = test system: K. pneumoniae ATCCBAA-1705; assay: as above; settings: inoculum 5×10^5 cfu/mL; for MIC: Klebsiella pneumoniae, ATCCBAA1705, Table 2, KPC-2 carbapenemase producing strain, read-out: Minimum Inhibitory Concentration (MIC) K. pneumoniae ATCC BAA-1705
Procedure: as §1

P. aeruginosa SR24 = assay: as above; settings: no enzyme, inoculum 5×10^5 cfu/mL; for MIC: Pseudomonas aeruginosa, SR24, Table 2, ceftazidime resistance strain, read-out: Minimum Inhibitory Concentration (MIC) P. aeruginosa SR24; for Minimum Inhibitory Concentration (MIC) P. aeruginosa SR24: Table 2, ceftazidime resistance strain
Procedure: as §1

P. aeruginosa SR27060 = assay: as above; settings: inoculum 5×10^5 cfu/mL; for MIC: Pseudomonas aeruginosa, SR27060, Table 2, IMP-1 MBL producing strain (carbapenem resistance strain), read-out: Minimum Inhibitory Concentration (MIC) P. aeruginosa SR27060
Procedure: as §1

E. cloacae NCTC13464 = assay: MIC, CLSI broth microdilution, cation-adjusted iso-sensitest broth with human apo transferrin (Test Example 2); settings: Enterobacter cloacae, Table 5, CTX-M group 9 ESBL producing strain, inoculum 5×10^5 cfu/mL, read-out: Minimum Inhibitory Concentration (MIC) E. cloacae NCTC 13464
Procedure: as §1, with “iso-sensitest” for “Mueller Hinton”, “apo transferrin” for “apo-transferrin”

E. coli ATCCBAA-196 = assay: as above; settings: Escherichia coli, ATCCBAA196, Table 5, TEM-10 ESBL producing strain, inoculum 5×10^5 cfu/mL, read-out: Minimum Inhibitory Concentration (MIC) E. coli ATCC BAA-196
Procedure: as §1, with “iso-sensitest” for “Mueller Hinton”, “apo transferrin” for “apo-transferrin”

E. coli ATCCBAA-200 [3] = assay: as above; settings: Escherichia coli, ATCCBAA200, Table 5, SHV-4 ESBL producing strain, inoculum 5×10^5 cfu/mL, read-out: Minimum Inhibitory Concentration (MIC) E. coli ATCC BAA-200
Procedure: as §1, with “iso-sensitest” for “Mueller Hinton”, “apo transferrin” for “apo-transferrin”

| Compound | MIC (A. baumannii SR27323) [µg/mL] | MIC (E. coli ATCCBAA-199) [µg/mL] | MIC (E. coli ATCCBAA-200 [1]) [µg/mL] | MIC [2] [µg/mL] | MIC (P. aeruginosa SR24) [µg/mL] | MIC (P. aeruginosa SR27060) [µg/mL] | Minimum Inhibitory Concentration (MIC) A. baumannii SR27323 (A. baumannii SR27323) | Minimum Inhibitory Concentration (MIC) E. coli ATCC BAA-199 (E. coli ATCCBAA-199; Table 2, SHV-3 ESBL producing strain) | Minimum Inhibitory Concentration (MIC) E. coli ATCC BAA-200 (E. coli ATCCBAA-200 [1]; Table 2, SHV-4 ESBL producing strain) | Minimum Inhibitory Concentration (MIC) K. pneumoniae ATCC BAA-1705 ([2]; Table 2, KPC-2 carbapenemase producing strain) | Minimum Inhibitory Concentration (MIC) P. aeruginosa SR24 (P. aeruginosa SR24) [µg/mL] | Minimum Inhibitory Concentration (MIC) P. aeruginosa SR27060 (P. aeruginosa SR27060; Table 2, IMP-1 MBL producing strain (carbapenem resistance strain)) [μg/ml] | MIC (E. cloacae NCTC13464) [µg/mL] | MIC (E. coli ATCCBAA-196) [µg/mL] | MIC (E. coli ATCCBAA-200 [3]) [µg/mL] |
| --- | --- | --- | --- | --- | --- | --- | --- | --- | --- | --- | --- | --- | --- | --- | --- |
| CC(C)(O/N=C(\C(=O)N[C@@H]1C(=O)N2C(C(=O)[O-])=C(CSc3cc[n+](CC(=O)c4ccc(O)c(O)c4)cc3)CS[C@H]12)c1csc(N)n1)C(=O)O [Comparative Compound 1, reference compound] | 0.5 (≈ 0.686 µM) | 1 (≈ 1.37 µM) | 2 (≈ 2.74 µM) | 0.25 (≈ 0.343 µM) | 0.25 (≈ 0.343 µM) | > 32 | – | – | – | – | – | – | – | – | – |
| CC(C)(O/N=C(\C(=O)N[C@@H]1C(=O)N2C(c3nnn[n-]3)=C(CSc3cc[n+](Cc4ccc(O)c(O)c4)cc3)CS[C@H]12)c1csc(N)n1)C(=O)O [Compound I-1] | – | – | – | – | – | – | 1 µg/mL | ≦0.031 μg/ml | ≦0.031 μg/ml | ≦0.031 μg/ml | 0.25 | 1. | – | – | – |
| CC(C)(O/N=C(\C(=O)N[C@@H]1C(=O)N2C(c3nnn[n-]3)=C(CSc3cc[n+](Cc4ccc(O)c(O)c4)cc3)CS[C@H]12)c1csc(N)n1)C(=O)O [Compound I-2] | – | ≤ 0.031 | ≤ 0.031 | ≤ 0.031 | – | 0.5 (≈ 0.69 µM) | ≦0.031 μg/ml | – | – | – | 0.063 | – | – | – | – |
| CC(C)(O/N=C(\C(=O)N[C@@H]1C(=O)N2C(c3nnn[n-]3)=C(CSc3cc[n+](CC(=O)c4ccc(O)c(O)c4)cc3)CS[C@H]12)c1nsc(N)n1)C(=O)O [Compound I-4] | 1 (≈ 1.33 µM) | 0.125 (≈ 0.166 µM) | 0.25 (≈ 0.332 µM) | ≤ 0.031 | 0.125 (≈ 0.166 µM) | 2 (≈ 2.65 µM) | – | – | – | – | – | – | – | – | – |
| C[C@H](O/N=C(\C(=O)N[C@@H]1C(=O)N2C(c3nnn[n-]3)=C(CSc3cc[n+](CC(=O)c4ccc(O)c(O)c4)cc3)CS[C@H]12)c1nc(N)sc1Cl)C(=O)O [Compound I-5] | 0.5 (≈ 0.647 µM) | ≤ 0.031 | 0.063 (≈ 0.0815 µM) | ≤ 0.031 | 0.125 (≈ 0.162 µM) | 1 (≈ 1.29 µM) | – | – | – | – | – | – | – | – | – |
| CC(C)(O/N=C(\C(=O)N[C@@H]1C(=O)N2C(c3nnn[n-]3)=C(CSc3cc[n+](-c4ccc(O)c(O)c4)cc3)CS[C@H]12)c1csc(N)n1)C(=O)O [Compound I-6] | 0.125 (≈ 0.176 µM) | ≤ 0.031 | ≤ 0.031 | ≤ 0.031 | 0.063 (≈ 0.0886 µM) | – | – | – | – | – | – | – | – | – | – |
| CC(C)(O/N=C(\C(=O)N[C@@H]1C(=O)N2C(c3nnn[n-]3)=C(CSc3cc[n+](CC(=O)c4ccc(O)c(O)c4)cc3)C[S+]([O-])[C@H]12)c1csc(N)n1)C(=O)O (some centres unmarked) [Compound I-7] | 2 (≈ 2.6 µM) | ≤ 0.031 | ≤ 0.031 | ≤ 0.031 | 0.5 (≈ 0.65 µM) | 4 (≈ 5.2 µM) | – | – | – | – | – | – | – | – | – |
| C[C@H](O/N=C(\C(=O)N[C@@H]1C(=O)N2C(c3nnn[n-]3)=C(CSc3cc[n+](CC(=O)c4ccc(O)c(O)c4)cc3)CO[C@H]12)c1nc(N)sc1Cl)C(=O)O [Compound I-8] | 2 (≈ 2.64 µM) | 0.063 (≈ 0.0832 µM) | 0.25 (≈ 0.33 µM) | ≤ 0.031 | 0.25 (≈ 0.33 µM) | 16 (≈ 21.1 µM) | – | – | – | – | – | – | – | – | – |
| CC(C)(O/N=C(\C(=O)N[C@@H]1C(=O)N2C(c3nnn[n-]3)=C(CSc3cc[n+](CC(=O)c4ccc(O)c(O)c4Cl)cc3)CS[C@H]12)c1nc(N)sc1Cl)C(=O)[O-].[Na+] [Compound I-15] | – | – | – | – | – | – | – | – | – | – | – | – | 0.125 | ≤ 0.031 | ≤ 0.031 |
| CC(C)(O/N=C(\C(=O)N[C@@H]1C(=O)N2C(c3nnn[n-]3)=C(CSc3cc[n+](-c4ccc(O)c(O)c4Cl)cc3)CS[C@H]12)c1nsc(N)n1)C(=O)[O-].[Na+] [Compound I-17] | – | – | – | – | – | – | – | – | – | – | – | – | 0.063 | 0.125 | 0.125 |
